Patent US12702148B2, “Acetylcholinesterase inhibitor” (Taiko Pharmaceutical Co., Ltd., priority 2019, dated 2026)
pIC50: −log10 of the molar value. Read-outs that look alike come from different tables or passages of the source.

Columns and labels:
[1] = biological target: T1, Acetylcholinesterase from Electrophorus electricus (electric eel) Type VI-S (Electrophorus electricus, UniProt O42275); test: biochemical
T1 construct: purchased Sigma-Aldrich C3389-500UN
Method: 2. Reagents 2.1 AchE Enzyme • Name: Acetylcholinesterase from Electrophorus electricus (electric eel) Type VI-S • Serial number: C3389-500UN • Obtained from: Sigma-Aldrich • Storage condition: Frozen (−20° C.) 2.2 AchE Activity Measurement Kit • Name: Acetylcholinesterase Activity Assay Kit • Serial number: MAK119 • Obtained from: Sigma-Aldrich • Storage condition: Room temperature 2.3 Solvent • Name: UltraPure 1M Tris-HCL pH 7.5 • Serial number: 15567-027 • Obtained from: Invitrogen • Storage condition: Refrigerated (4° C.) 2.4 Water
AchE enzyme (lyophilized powder) 2 mg (500 units) was dissolved in 2 mL of Tris-HCL Buffer pH 7.5 prepared to a concentration of 20 mM. This was then further diluted 30-folds with ultrapure water to prepare to a concentration of 33.3 μg/mL.
Two mg of the reagent included in the AchE activity measurement kit was weighed, dissolved in 200 mL of the assay buffer, and the working solution was obtained.
Measurement was carried out according to the following order. • 1) AchE enzyme solution (33.3 μg/mL) is mixed with test substance 1 solution (5 mg/mL) and ultrapure water according to the following Table 1.
(§1) • 2) The mixture is allowed to react in a thermobath at 37° C. for 10 minutes. • 3) 200 μL each of ultrapure water is added to 4 wells (n=4) of a 96-well microplate (blank wells.) • 4) 200 μL each of the calibrator included in the AchE activity measurement kit is added to 4 wells (n=4) different from those in Procedure 3) (calibrator wells.) • 5) 190 μL each of the working solution is added to yet another 24 wells (6 samples×4) (sample wells.) • 6) To the wells with the working solution added, 10μ each of post-reaction solutions No. 1-6 obtained in Procedure 2) is added to 4 wells (n=4) each. • 7) The plates are lightly tapped to allow mixing, reacted for 2 minutes at room temperature, and then absorbance at 412 nm is read with a microplate reader. • 8) This is allowed to react for another 8 minutes at room temperature (a total of 10 minutes), and then the absorbance at 412 nm is measured.
Measurement was carried out according to the following order. • 1) AchE enzyme solution (33.3 μg/mL) is mixed with test substance 2 solution (800 μg/mL) and ultrapure water according to the following Table 2.
as §1, with “measured. 6. Data Processing” for “measured.”
Employing the absorbance values obtained, the AchE activity (units/mL) was calculated by the formula below, and the average value and standard deviation of the AchE activity (units/mL) for each test substance at each concentration was calculated.
[formula] • (A412) final: Absorbance value at 412 nm after 10 minutes of reaction • (A412) initial Absorbance value at 412 nm after 2 minutes of reaction • n: Dilution coefficient (n=120) 0.2: Coefficient by Calibrator
Moreover, employing the AchE activity for the test substance at each concentration, One phase exponential decay curve was obtained by GraphPad Prism, and the IC50 value (mg/mL) was calculated.

[2] = biological target: T1, Acetylcholinesterase from Electrophorus electricus (electric eel) Type VI-S; format: biochemical; conditions: n=3, average value

T1 sequence (O42275 24-633): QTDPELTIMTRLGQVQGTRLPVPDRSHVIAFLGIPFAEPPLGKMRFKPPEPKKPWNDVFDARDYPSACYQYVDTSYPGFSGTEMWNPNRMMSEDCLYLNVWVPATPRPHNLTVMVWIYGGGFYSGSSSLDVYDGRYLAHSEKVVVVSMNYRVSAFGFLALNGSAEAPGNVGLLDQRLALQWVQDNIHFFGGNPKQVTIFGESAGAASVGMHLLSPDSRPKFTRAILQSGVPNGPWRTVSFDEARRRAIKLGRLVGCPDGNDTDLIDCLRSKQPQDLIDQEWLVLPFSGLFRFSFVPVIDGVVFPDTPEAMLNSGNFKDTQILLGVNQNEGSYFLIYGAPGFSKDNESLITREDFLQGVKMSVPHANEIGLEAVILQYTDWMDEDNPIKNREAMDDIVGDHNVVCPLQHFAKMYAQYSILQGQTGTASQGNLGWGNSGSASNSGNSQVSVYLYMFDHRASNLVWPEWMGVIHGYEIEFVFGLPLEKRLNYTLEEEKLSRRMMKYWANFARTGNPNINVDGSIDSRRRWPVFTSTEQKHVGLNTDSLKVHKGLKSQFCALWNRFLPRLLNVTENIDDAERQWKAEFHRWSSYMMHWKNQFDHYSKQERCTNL

In the case of `COc1ccccc1O` [GUA, Guaiacol], the IC50 ([1]; nonlinear regression curve of AchE activity at each concentration (GraphPad Prism), read-out: IC50 value (converted)) was 137 mM, the inhibition at 200 µM ([1]; read-out: Inhibitory rate) was 3% and the inhibition at 700 µM ([1]; read-out: Inhibitory rate) was 3.9%. For the same compound, the inhibition at 2000 µM ([1]; read-out: Inhibitory rate) was 2.2%, the inhibition at 7000 µM ([1]; read-out: Inhibitory rate) was 19.9% and the inhibition at 20000 µM ([1]; read-out: Inhibitory rate) was 58.8%. It also gave a pIC50 ([1]; regression curve by GraphPad Prism, Example 2, read-out: IC50) of 1.77, an AchE activity ([2]; GUA concentration 0.2 mM) of 24.89 units/mL and an AchE activity ([2]; GUA concentration 0.7 mM) of 24.64 units/mL. It also gave an AchE activity ([2]; GUA concentration 2 mM) of 25.09 units/mL, an AchE activity ([2]; GUA concentration 7 mM) of 20.54 units/mL and an AchE activity ([2]; GUA concentration 20 mM) of 10.56 units/mL.
